# pEC50, pKi: −log10 of the molar value. Active and inactive are the calls of the source. The rule behind the calls is not given here.
# Tests used:
# BaF3 [1] = assay: cells; conditions: Mus musculus, BaF3, 72 h
# [2] = molecular target: T1, Tyrosine-protein kinase TXK (Homo sapiens) (UniProt P42681); assay: Inhibition of TXK (unknown origin) at 1 uM by Eurofins DiscoverX KINOMEscan analysis
# T1 sequence (whole entry): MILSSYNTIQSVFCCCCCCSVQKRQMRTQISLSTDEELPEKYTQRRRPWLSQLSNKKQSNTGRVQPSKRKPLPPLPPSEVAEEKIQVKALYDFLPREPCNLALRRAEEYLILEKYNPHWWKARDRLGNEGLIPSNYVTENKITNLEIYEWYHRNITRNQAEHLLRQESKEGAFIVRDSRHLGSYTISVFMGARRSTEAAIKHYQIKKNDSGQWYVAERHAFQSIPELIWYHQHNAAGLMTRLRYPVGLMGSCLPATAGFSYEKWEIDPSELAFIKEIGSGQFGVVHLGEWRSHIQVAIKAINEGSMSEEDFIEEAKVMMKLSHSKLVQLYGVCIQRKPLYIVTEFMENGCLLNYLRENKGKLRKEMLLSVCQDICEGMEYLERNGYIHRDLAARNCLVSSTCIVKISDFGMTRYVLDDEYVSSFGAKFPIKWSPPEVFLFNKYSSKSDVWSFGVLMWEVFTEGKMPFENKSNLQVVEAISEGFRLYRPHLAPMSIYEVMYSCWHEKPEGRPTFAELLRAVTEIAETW
# [3] = molecular target: Epidermal growth factor receptor (Homo sapiens, UniProt P00533, L858R); assay: Time-dependent irreversible inhibition of GST-tagged EGFR L858R mutant cytoplasmic domain (669 to 1210 residues) (unknown origin) assessed as apparent inactivation constant (Ki) incubated for 240 mins in presence of ATP by fluorescence based analysis; conditions: read-out: Ki(app)
# Chain of Epidermal growth factor receptor (Homo sapiens, UniProt P00533, L858R) (P00533 25-1210 L858R limits assumed): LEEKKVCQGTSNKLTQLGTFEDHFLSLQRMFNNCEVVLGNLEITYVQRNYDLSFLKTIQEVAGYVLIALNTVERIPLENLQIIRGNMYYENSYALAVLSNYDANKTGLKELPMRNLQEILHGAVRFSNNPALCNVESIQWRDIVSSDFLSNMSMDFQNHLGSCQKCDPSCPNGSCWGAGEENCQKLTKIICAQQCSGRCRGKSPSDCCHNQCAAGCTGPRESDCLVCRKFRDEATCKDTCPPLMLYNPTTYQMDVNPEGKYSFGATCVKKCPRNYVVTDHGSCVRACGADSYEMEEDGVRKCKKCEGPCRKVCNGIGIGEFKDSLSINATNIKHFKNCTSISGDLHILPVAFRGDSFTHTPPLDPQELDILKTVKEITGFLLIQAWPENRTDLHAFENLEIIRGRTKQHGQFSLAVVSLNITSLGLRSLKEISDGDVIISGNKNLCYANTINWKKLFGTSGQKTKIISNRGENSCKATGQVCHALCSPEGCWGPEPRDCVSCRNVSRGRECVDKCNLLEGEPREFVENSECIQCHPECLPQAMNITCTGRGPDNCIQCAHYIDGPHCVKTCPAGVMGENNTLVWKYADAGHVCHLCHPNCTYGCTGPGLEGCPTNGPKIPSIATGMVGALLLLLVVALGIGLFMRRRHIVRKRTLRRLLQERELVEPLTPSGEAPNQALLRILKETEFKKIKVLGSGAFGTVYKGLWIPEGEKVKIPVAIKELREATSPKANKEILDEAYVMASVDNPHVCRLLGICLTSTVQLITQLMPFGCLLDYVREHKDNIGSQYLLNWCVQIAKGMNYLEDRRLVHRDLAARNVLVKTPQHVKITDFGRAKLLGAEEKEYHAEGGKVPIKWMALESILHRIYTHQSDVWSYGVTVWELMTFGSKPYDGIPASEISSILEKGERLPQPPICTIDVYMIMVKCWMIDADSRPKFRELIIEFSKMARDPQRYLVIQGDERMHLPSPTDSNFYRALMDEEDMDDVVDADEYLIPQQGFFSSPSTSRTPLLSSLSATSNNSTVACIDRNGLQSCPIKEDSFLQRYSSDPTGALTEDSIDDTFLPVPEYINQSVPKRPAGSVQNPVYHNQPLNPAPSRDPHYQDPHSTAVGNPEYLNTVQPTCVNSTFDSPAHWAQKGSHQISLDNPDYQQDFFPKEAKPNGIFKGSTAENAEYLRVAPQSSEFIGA
# cells = conditions: Homo sapiens, NCI-H1975, 72 h
# [4] = molecular target: Tyrosine-protein kinase Blk (Homo sapiens) (UniProt P51451); assay: Inhibition of BLK (unknown origin) at 1 uM by Eurofins DiscoverX KINOMEscan analysis
# Chain of Tyrosine-protein kinase Blk (Homo sapiens) (P51451 2-505 limits assumed): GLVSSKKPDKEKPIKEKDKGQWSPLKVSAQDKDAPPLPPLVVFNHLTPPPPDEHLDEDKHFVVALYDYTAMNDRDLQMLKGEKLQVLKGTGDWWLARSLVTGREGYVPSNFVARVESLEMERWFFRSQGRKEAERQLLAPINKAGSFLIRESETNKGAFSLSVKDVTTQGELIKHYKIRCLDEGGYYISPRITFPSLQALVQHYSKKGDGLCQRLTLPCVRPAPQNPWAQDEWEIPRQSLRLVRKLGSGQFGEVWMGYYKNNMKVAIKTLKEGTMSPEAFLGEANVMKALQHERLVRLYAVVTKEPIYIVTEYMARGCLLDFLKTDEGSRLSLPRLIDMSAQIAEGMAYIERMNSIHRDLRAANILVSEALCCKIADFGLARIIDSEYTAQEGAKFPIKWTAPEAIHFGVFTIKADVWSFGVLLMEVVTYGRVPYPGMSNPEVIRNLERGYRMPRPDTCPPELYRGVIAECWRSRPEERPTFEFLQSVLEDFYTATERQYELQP
# BaF3 [5] = type: functional, cell-based; conditions: Mus musculus, BaF3, 72 h
# BaF3 [6] = assay: cells; conditions: Mus musculus, BaF3, 72 h; remark: listed apart in the source
# [7] = molecular target: T2, Tyrosine-protein kinase ITK/TSK (Homo sapiens) (UniProt Q08881); assay: Inhibition of ITK (unknown origin) at 1 uM by Eurofins DiscoverX KINOMEscan analysis
# T2 sequence (whole entry): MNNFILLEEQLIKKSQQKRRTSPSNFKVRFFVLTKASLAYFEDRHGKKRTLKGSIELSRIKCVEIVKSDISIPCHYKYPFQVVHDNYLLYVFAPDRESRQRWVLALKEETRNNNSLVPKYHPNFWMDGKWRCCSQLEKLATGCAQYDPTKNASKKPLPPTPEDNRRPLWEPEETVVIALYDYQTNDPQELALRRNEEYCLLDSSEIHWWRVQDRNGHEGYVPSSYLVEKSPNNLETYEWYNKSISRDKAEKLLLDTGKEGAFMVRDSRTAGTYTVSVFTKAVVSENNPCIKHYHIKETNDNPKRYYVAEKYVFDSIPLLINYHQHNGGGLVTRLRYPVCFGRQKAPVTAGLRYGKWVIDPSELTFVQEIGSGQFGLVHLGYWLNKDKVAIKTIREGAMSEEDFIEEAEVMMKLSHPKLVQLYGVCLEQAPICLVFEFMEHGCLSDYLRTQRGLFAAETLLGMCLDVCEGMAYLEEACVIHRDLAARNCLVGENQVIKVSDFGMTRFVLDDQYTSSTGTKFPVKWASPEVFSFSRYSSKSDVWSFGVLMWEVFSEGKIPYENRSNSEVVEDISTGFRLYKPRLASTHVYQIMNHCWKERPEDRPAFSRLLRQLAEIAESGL
# [8] = molecular target: Epidermal growth factor receptor (Homo sapiens, UniProt P00533); assay: Time-dependent irreversible inhibition of N-terminal GST-tagged wildtype human EGFR cytoplasmic domain (669 to 1210 residues) extracted from Sf21 insect cells assessed as apparent inactivation constant (Ki) incubated for 240 mins in presence of ATP by fluorescence based analysis; conditions: read-out: Ki(app)
# Chain of Epidermal growth factor receptor (Homo sapiens, UniProt P00533) (P00533 whole entry, the tested form may be a part): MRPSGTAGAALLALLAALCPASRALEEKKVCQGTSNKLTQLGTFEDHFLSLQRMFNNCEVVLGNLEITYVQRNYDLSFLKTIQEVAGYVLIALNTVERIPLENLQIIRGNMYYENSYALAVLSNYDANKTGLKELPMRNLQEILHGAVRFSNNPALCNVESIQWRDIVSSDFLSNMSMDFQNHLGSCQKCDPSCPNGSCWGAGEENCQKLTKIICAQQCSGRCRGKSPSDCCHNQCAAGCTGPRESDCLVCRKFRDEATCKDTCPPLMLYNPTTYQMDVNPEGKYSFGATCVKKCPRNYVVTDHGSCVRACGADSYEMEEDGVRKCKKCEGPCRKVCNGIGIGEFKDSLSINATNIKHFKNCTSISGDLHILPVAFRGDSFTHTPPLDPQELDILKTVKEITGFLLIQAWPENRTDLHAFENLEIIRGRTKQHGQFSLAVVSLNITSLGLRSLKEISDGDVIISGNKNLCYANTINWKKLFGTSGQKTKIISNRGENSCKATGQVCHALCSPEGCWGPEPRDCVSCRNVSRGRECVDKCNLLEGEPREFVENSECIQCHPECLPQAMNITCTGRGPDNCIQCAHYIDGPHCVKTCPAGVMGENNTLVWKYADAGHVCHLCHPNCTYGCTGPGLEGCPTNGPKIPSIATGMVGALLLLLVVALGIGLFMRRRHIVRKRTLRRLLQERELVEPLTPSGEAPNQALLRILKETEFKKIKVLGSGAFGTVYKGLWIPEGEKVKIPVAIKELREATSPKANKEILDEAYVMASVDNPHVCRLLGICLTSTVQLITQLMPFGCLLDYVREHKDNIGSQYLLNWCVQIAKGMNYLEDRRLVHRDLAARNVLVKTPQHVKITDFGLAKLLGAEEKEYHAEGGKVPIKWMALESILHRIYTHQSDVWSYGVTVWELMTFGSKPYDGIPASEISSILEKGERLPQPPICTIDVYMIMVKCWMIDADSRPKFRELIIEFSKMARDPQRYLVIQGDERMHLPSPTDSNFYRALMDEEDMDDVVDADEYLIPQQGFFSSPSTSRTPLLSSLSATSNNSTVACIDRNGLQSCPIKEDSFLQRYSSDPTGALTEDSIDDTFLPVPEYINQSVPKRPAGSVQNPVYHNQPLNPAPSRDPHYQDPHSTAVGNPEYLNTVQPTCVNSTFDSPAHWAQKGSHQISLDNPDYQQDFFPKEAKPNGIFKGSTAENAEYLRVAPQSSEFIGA
# HCC827 = assay: cells; conditions: Homo sapiens, HCC827, 72 h
# [9] = molecular target: T3, Tyrosine-protein kinase Tec (Homo sapiens) (UniProt P42680); assay: Inhibition of TEC (unknown origin) at 1 uM by Eurofins DiscoverX KINOMEscan analysis
# T3 sequence (whole entry): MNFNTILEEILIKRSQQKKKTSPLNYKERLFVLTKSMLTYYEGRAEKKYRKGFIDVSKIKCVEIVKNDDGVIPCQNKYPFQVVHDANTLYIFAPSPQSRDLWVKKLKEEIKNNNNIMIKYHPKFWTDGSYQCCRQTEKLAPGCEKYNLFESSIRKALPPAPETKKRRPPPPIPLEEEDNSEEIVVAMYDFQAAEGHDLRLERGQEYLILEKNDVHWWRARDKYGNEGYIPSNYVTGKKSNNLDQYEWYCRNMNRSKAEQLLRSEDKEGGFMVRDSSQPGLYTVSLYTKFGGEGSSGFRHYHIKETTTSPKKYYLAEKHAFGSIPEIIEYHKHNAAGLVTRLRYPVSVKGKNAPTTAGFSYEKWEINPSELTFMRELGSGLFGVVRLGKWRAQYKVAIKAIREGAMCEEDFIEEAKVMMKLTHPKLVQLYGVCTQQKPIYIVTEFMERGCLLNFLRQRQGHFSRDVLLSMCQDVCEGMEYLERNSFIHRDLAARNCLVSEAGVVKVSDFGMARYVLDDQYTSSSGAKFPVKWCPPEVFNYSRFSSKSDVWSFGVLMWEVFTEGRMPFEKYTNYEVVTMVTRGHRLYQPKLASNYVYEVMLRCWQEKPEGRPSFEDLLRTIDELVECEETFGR
# BaF3 [10] = assay: Antiproliferative activity against mouse BaF3 cells harboring EGFR exon 19del mutant incubated for 72 hrs by MTT assay; type: functional, cell-based; conditions: BaF3, 72 h
smiles,measurement,setting,value
C=CC(=O)Nc1ccc(OC)c(Nc2cc(-c3[nH]c(SC)nc3-c3cccc(NC(=O)c4cccc(O)c4CN4Cc5ccccc5C4=O)c3)ccn2)c1,pEC50,BaF3 [1],6.82
same,inhibition,[2],inactive
same,pKi,[3],6.56
same,pEC50,cells,6.48
same,inhibition,[4],inactive
same,pEC50,BaF3 [5],5.41
same,pEC50,BaF3 [6],6.12
same,inhibition,[7],inactive
same,pKi,[8],5.88
same,pEC50,HCC827,6.80
same,inhibition,[9],inactive
same,pEC50,BaF3 [10],6.02
